Laboratory results taken from patent US20190225650A1, “PEPTIDOMIMETIC MACROCYCLES AND USE THEREOF IN REGULATING HIF1ALPHA” (AILERON THERAPEUTICS, INC., priority 2013, published 2019).
Bridge positions count the residues as written; N and C are the ends. Square brackets hold non-standard residues; d marks the D form. Peptide text beside a SMILES is read from it. Cba = N[C@@H](CC1CCC1)C(=O)O; S5 = C=CCCC[C@](C)(N)C(=O)O; Nle = CCCC[C@H](N)C(=O)O

Assays:
[1] = target: T1, flag-tagged HIF1α (AA 786-826) / His6-tagged p300 (AA 323-423) complex (Homo sapiens, UniProt Q09472); assay: HIF1α p300 displacement assay (TR FRET, +CHAPS); type: binding; details: read-out: IC50 (nM) (HIF1α_p300 Displacement + CHAPS)
T1 construct: His6-tagged p300 (AA 323-423); made in house; host or cells: E. coli (pETDuet vector)
In short: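 In this TR-FRET displacement format, peptides compete HIF1α C-terminal transactivation domain off p300-CH. They were preincubated 1 h at room temperature with 300 nM complex in HEPES pH 7.4/NaCl buffer with 7.5 mM CHAPS and 1 mM DTT. Anti-His-D2 (4 nM) and anti-Flag-K (0.5 μM) followed for 2 h, and a one-site fit of the fluorescence ratio gave IC50.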

HRE-bla ME-180 cells = assay: Reporter gene assay (HRE-bla ME-180 HIF reporter, GeneBLAzer); type: cell-based, human; details: for EC50: 24 hour normoxia
In short: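 A FRET β-lactamase readout of HIF transcription was used. After compound treatment in 0.3% DMSO/media under normoxic conditions, 20 μl of 6× LiveBLAzer-FRET B/G (CCF4-AM) substrate was added. Plates sat 3 hr at room temperature in the dark and were read at 409 Ex/460Em and 409Ex/530Em on a Synergy 2. Inhibition was compared against DMSO vehicle controls, with chetomin as positive control.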

| Structure (SMILES) | IC50 [1] [nM] | EC50 (HRE-bla ME-180 cells) [µM] | 18 h Avg % max inhibition at top conc (HIF Rptr-24 hrs normoxia) (μM) (HRE-bla ME-180 cells) |
| --- | --- | --- | --- |
| CCCC[C@@H]1NC(=O)[C@H](CC(C)C)NC(=O)[C@H](C(C)C)NC(=O)[C@@](C)(NC(=O)[C@H](CCC(=O)O)NC(=O)[C@H](CC(=O)O)NC(=O)[C@@H](NC(=O)[C@H](Cc2ccccc2)NC(C)=O)[C@@H](C)CC)CCCC=CCCCC2(CCCC=CCCC[C@](C)(C(=O)N[C@@H](CCCC)C(=O)N[C@@H](C)C(=O)N[C@@H](CC(C)C)C(N)=O)NC(=O)[C@H]([C@@H](C)CC)NC(=O)[C@H](C(C)C)NC(=O)[C@H](CCCNC(=N)N)NC2=O)NC1=O (stereo partly shown) [SP-209] | > 700 | > 30 | ++ (≤10 but <25: ++) |
| CCCC[C@@H]1NC(=O)[C@H](CC(C)C)NC(=O)[C@H](CCCNC(=N)N)NC(=O)[C@@](C)(NC(=O)[C@H](CCC(=O)O)NC(=O)[C@H](CC(=O)O)NC(=O)[C@@H](NC(=O)[C@H](Cc2ccccc2)NC(C)=O)[C@@H](C)CC)CCCC=CCCCC2(CCCC=CCCC[C@](C)(C(=O)N[C@@H](CCCC)C(=O)N[C@@H](C)C(=O)N[C@@H](CC(C)C)C(N)=O)NC(=O)[C@H]([C@@H](C)CC)NC(=O)[C@H](C(C)C)NC(=O)[C@H](CC(C)C)NC2=O)NC1=O (stereo partly shown) [SP-206] | > 700 | > 30 | + (<10: +) |
| CC[C@H](C)[C@H](NC(=O)[C@H](Cc1ccccc1)NC(C)=O)C(=O)N[C@@H](CC(=O)O)C(=O)N[C@@H](CCC(=O)O)C(=O)N[C@@]1(C)CCCC=CCCC[C@@](C)(C(=O)N[C@@H](CC(C)C)C(=O)N[C@H](C(=O)N[C@H](C(=O)N[C@@H](CCC(=O)O)C(=O)N[C@@H](CCSC)C(=O)N[C@@H](C)C(=O)N[C@@H](CC(C)C)C(=O)N[C@@H](CC(=O)O)C(=O)N[C@@H](CCCNC(=N)N)C(=O)N[C@H](C(=O)N[C@@H](CCCCN)C(=O)N[C@@H](CCC(=O)O)C(=O)N[C@@H](CC(C)C)C(=O)N2CCC[C@H]2C(=O)N[C@@H](CCC(=O)O)C(=O)N[C@@H](CC(C)C)C(=O)N[C@@H](Cc2c[nH]c3ccccc23)C(=O)N[C@@H](CC(C)C)C(N)=O)[C@@H](C)CC)[C@@H](C)CC)C(C)C)NC(=O)[C@H](CCSC)NC(=O)[C@H](CC(C)C)NC(=O)[C@H](C(C)C)NC1=O [SP-107] (Ac-FIDE[S5]VLM[S5]LVIEMALDRIKELPELWL-NH2; staple 5-9) | ≤ 200 | > 30 | – |
| CCCC[C@@H]1NC(=O)[C@H](CC(C)C)NC(=O)[C@H]([C@@H](C)O)NC(=O)[C@@](C)(NC(=O)[C@H](C)NC(=O)[C@H](CC(=O)O)NC(=O)[C@@H](NC(=O)[C@H](Cc2ccccc2)NC(C)=O)[C@@H](C)CC)CCCC=CCCCC2(CCCC=CCCC[C@](C)(C(=O)N[C@@H](CCCC)C(=O)N[C@@H](C)C(=O)N[C@@H](CC(C)C)C(N)=O)NC(=O)[C@H]([C@@H](C)CC)NC(=O)[C@H](C(C)C)NC(=O)[C@H](CO)NC2=O)NC1=O (stereo partly shown) [SP-214] | > 700 | > 30 | +++ (≤25 but <50: +++) |
| CCCC[C@H](NC(=O)[C@H](CCC(=O)O)NC(=O)[C@@H](NC(=O)[C@@H](NC(=O)[C@H](CC(C)C)NC(=O)[C@]1(C)CCCC=CCCC[C@](C)(NC(=O)[C@H](CCC(=O)O)NC(=O)[C@H](CC(=O)O)NC(=O)[C@@H](NC(=O)[C@H](Cc2ccccc2)NC(C)=O)[C@@H](C)CC)C(=O)N[C@@H](C(C)C)C(=O)N[C@@H](CC(C)C)C(=O)N[C@@H](CCCC)C(=O)N1)C(C)C)[C@@H](C)CC)C(=O)NCC(=O)N[C@@H](CC(C)C)C(=O)N[C@@H](CC(=O)O)C(=O)N[C@@H](CCCNC(=N)N)C(=O)N[C@H](C(=O)N[C@@H](CCCCN)C(=O)N[C@@H](CCC(=O)O)C(=O)N[C@@H](CC(C)C)C(=O)N1CCC[C@H]1C(=O)N[C@@H](CCC(=O)O)C(=O)N[C@@H](CC(C)C)C(=O)N[C@@H](Cc1c[nH]c2ccccc12)C(=O)N[C@@H](CC(C)C)C(N)=O)[C@@H](C)CC [SP-105] (Ac-FIDE[S5]VL[Nle][S5]LVIE[Nle]GLDRIKELPELWL-NH2; staple 5-9) | ≤ 200 | > 30 | – |

Further lines, with some results ahead:

| IC50 [1] [nM] | EC50 (HRE-bla ME-180 cells) [µM] | Structure (SMILES) | 18 h Avg % max inhibition at top conc (HIF Rptr-24 hrs normoxia) (μM) (HRE-bla ME-180 cells) |
| --- | --- | --- | --- |
| > 700 | > 30 | CCCC[C@H](NC(=O)[C@H](CCCNC(=N)N)NC(=O)[C@@H](NC(=O)[C@@H](NC(=O)[C@H](CC(C)C)NC(=O)[C@]1(C)CCCC=CCCC[C@](C)(NC(=O)[C@H](CCC(=O)O)NC(=O)[C@H](CC(=O)O)NC(=O)[C@@H](NC(=O)[C@H](Cc2ccccc2)NC(C)=O)[C@@H](C)CC)C(=O)N[C@@H](C(C)C)C(=O)N[C@@H](CC(C)C)C(=O)N[C@@H](CCCC)C(=O)N1)C(C)C)[C@@H](C)CC)C(=O)N[C@@H](C)C(=O)N[C@@H](CC(C)C)C(N)=O [SP-157] (Ac-FIDE[S5]VL[Nle][S5]LVIR[Nle]AL-NH2; staple 5-9) | + (<10: +) |
| 200 to 400 | > 30 | CCCC[C@H](NC(=O)[C@H](CCCNC(=N)N)NC(=O)[C@H](CC(=O)O)NC(=O)[C@H](CC(C)C)NC(=O)[C@H](C)NC(=O)[C@H](CCCC)NC(=O)[C@H](C)NC(=O)[C@@H](NC(=O)[C@@H](NC(=O)[C@H](CC(C)C)NC(=O)[C@]1(C)CCCC=CCCC[C@](C)(NC(=O)[C@H](CCC(=O)O)NC(=O)[C@H](CC(=O)O)NC(=O)[C@@H](NC(=O)[C@H](Cc2ccccc2)NC(C)=O)[C@@H](C)CC)C(=O)N[C@@H](C(C)C)C(=O)N[C@@H](CC(C)C)C(=O)N[C@@H](CCCC)C(=O)N1)C(C)C)[C@@H](C)CC)C(N)=O [SP-125] (Ac-FIDE[S5]VL[Nle][S5]LVIA[Nle]ALDR[Nle]-NH2; staple 5-9) | + (<10: +) |
| 400 to 700 | > 30 | CC[C@H](C)[C@H](NC(=O)[C@H](Cc1ccccc1)NC(C)=O)C(=O)N[C@@H](CC(N)=O)C(=O)N[C@@H](CCC(=O)O)C(=O)N[C@@H](CCC(=O)O)C(=O)N[C@H](C(=O)N[C@@H](CC(C)C)C(=O)N[C@@H](CCSC)C(=O)N[C@@]1(C)CCCC=CCCC[C@@](C)(C(=O)N[C@@H](CCSC)C(=O)N[C@@H](C)C(=O)N[C@@H](CC(C)C)C(N)=O)NC(=O)[C@H]([C@@H](C)CC)NC(=O)[C@H](C(C)C)NC(=O)[C@H](CC(C)C)NC1=O)C(C)C [SP-232] (Ac-FINEEVLM[S5]LVI[S5]MAL-NH2; staple 9-13) | ++ (≤10 but <25: ++) |
| 400 to 700 | 15 to 30 | CC[C@H](C)[C@H](NC(=O)[C@H](Cc1ccccc1)NC(C)=O)C(=O)N[C@@H](CC(=O)O)C(=O)N[C@@H](CCC(N)=O)C(=O)N[C@@H](CCC(=O)O)C(=O)N[C@H](C(=O)N[C@@H](CC(C)C)C(=O)N[C@@H](CCSC)C(=O)N[C@@]1(C)CCCC=CCCC[C@@](C)(C(=O)N[C@@H](CCSC)C(=O)N[C@@H](C)C(=O)N[C@@H](CC(C)C)C(N)=O)NC(=O)[C@H]([C@@H](C)CC)NC(=O)[C@H](C(C)C)NC(=O)[C@H](CC(C)C)NC1=O)C(C)C [SP-233] (Ac-FIDQEVLM[S5]LVI[S5]MAL-NH2; staple 9-13) | +++ (≤25 but <50: +++) |
| > 700 | > 30 | CC[C@H](C)[C@H](NC(=O)[C@H](Cc1ccccc1)NC(C)=O)C(=O)N[C@@H](CC(=O)O)C(=O)N[C@@H](CCC(=O)O)C(=O)N[C@@H](CCC(=O)O)C(=O)N[C@H](C(=O)N[C@@H](CC(C)C)C(=O)N[C@@H](CCSC)C(=O)N[C@@]1(C)CCCC=CCCC[C@@](C)(C(=O)N[C@@H](CCSC)C(=O)N[C@@H](C)C(=O)N[C@@H](CC2CCC2)C(N)=O)NC(=O)[C@H]([C@@H](C)CC)NC(=O)[C@H](C(C)C)NC(=O)[C@H](CC(C)C)NC1=O)C(C)C [SP-237] (Ac-FIDEEVLM[S5]LVI[S5]MA[Cba]-NH2; staple 9-13) | +++ (≤25 but <50: +++) |
| 200 to 400 | 15 to 30 | CCCC[C@H](NC(=O)[C@H](C)NC(=O)[C@H](C)NC(=O)[C@H](CCCC)NC(=O)[C@H](C)NC(=O)[C@H](CCCC)NC(=O)[C@H](CC(C)C)NC(=O)[C@@H](NC(=O)[C@@H](NC(=O)[C@H](CC(C)C)NC(=O)[C@]1(C)CCCC=CCCC[C@](C)(NC(=O)[C@H](CCC(=O)O)NC(=O)[C@H](CC(=O)O)NC(=O)[C@@H](NC(=O)[C@H](Cc2ccccc2)NC(C)=O)[C@@H](C)CC)C(=O)N[C@@H](C(C)C)C(=O)N[C@@H](CC(C)C)C(=O)N[C@@H](CCCC)C(=O)N1)C(C)C)[C@@H](C)CC)C(N)=O [SP-126] (Ac-FIDE[S5]VL[Nle][S5]LVIL[Nle]A[Nle]AA[Nle]-NH2; staple 5-9) | ++++ (≥50: ++++) |
| 400 to 700 | ≤ 5 | CCCC[C@H](NC(=O)[C@H](CCC(=O)O)NC(=O)[C@@H](NC(=O)[C@@H](NC(=O)[C@H](CC(N)=O)NC(=O)[C@]1(C)CCCC=CCCC[C@](C)(NC(=O)[C@H](C)NC(=O)[C@H](CC(=O)O)NC(=O)[C@@H](NC(=O)[C@H](Cc2ccccc2)NC(C)=O)[C@@H](C)CC)C(=O)N[C@@H]([C@@H](C)O)C(=O)N[C@@H](CC(C)C)C(=O)N[C@@H](CCCC)C(=O)N1)C(C)C)[C@@H](C)CC)C(=O)N[C@@H](C)C(=O)N[C@@H](CC(C)C)C(N)=O [SP-151] (Ac-FIDA[S5]TL[Nle][S5]NVIE[Nle]AL-NH2; staple 5-9) | ++++ (≥50: ++++) |
